# In patent publication US11850279B2, “Platforms and methods for optimizing host antigen presentation and host antitumor and antipathogen immunity” (OHIO STATE INNOVATION FOUNDATION, priority 2016, dated 2023):
# Assays:
# [1] = test system: CD8^+ T cells; assay: In vivo CD8+ T cell priming by activated B cells / CABs
# Description: In other words, in vivo CD8^+ T cell priming is increased by antecedent treatment with Flt-3L and GM-CSF.
# In vivo CD8^+ T cell priming is increased by CHX treatment of activated B cells prior to injection. CHX can boost antigen presenting capacity by increasing survival of activated B cells.
# While in this model, GM-CSF/Flt-3L administration improved the efficacy of OVA-loaded B cell treatment, it is important to note that this cytokine treatment can improve the efficacy of intervention with other antigen-loaded antigen presenting cells (e.g. dendritic cell-based vaccine platforms).
# [2] = test system: tumor; assay: Anti-tumor activity of CABs (tumor size); type: in vivo, mouse
# Experimental: The zero-length cross linker EDAC promotes attachment of amino-containing molecules to activated B cells, such as CABs (Chlamydia activated B cells). In the bottom panel, the antigen presenting ability of activated B cells (or other professional APCs) can be enhanced by crosslinking desired antigen (protein or peptide) with EDAC prior to in vivo administration.
# “Low dose” is therefore defined as 2 μg-8 μg per kg in humans for Flt-3L, and 0.5 μg-2 μg per kg in humans for GM-CSF. “High dose” is defined as any amount above 8 μg/kg of Flt-3L and above 2 μg/kg of GM-CSF.
# [3] = test system: NKT cells; conditions: human, in vivo; cited from earlier work
# [4] = test system: tumor; conditions: cited from earlier work
# [5] = test system: endogenous DCs; assay: Activation of endogenous DCs by α-GC loaded CABs; conditions: α-GC loading of CABs prior to in vivo administration
# Description: In addition to GM-CSF and Flt-3L, antigen presenting capabilities of activated B cells (or other professional APCs) are enhanced by in vitro loading of APCs with α-GC prior to in vivo administration.
smiles,measurement,setting,value
"C[C@@H]1C[C@@H]([C@H](O)CC2CC(=O)NC(=O)C2)C(=O)[C@@H](C)C1 [CHX, Cycloheximide]",in vivo CD8^+ T cell priming,[1]; CHX treatment of activated B cells prior to injection,increased
"CCN=C=NCCCN(C)C [EDAC, 1-ethyl 1-3-(3-dimethylaminopropyl)-carbodiimide]",antitumor therapeutic activity,[2]; peptide chemically conjugated to CABs using EDAC vs simple peptide pulsing/loading,increases antitumor therapeutic activity
"CCCCCCCCCCCCCCCCCCCCCCCCCC(=O)N[C@@H](CO[C@H]1O[C@H](CO)[C@H](O)[C@H](O)[C@H]1O)[C@H](O)[C@H](O)CCCCCCCCCCCCCC [α-GC, α-Galactosylceramide]",tumor size,"[2]; α-GC loaded activated B cells, effect dependent on NKT cells",more effectively reduce tumor size
same,NKT cells in the peripheral blood of treated cancer patients,[3],fell to undetectable levels
same,tumor growth,[4],inhibit tumor growth
same,effector function of primed antigen-specific CD8^+ T cells,[1]; α-GC-loaded CABs,enhance
same,activation of endogenous DCs,[5],dramatically increase
